Assay results published in PubChem BioAssay AID1963836 (Molecular Pharmacology Branch, DTP, NCI, 2024).

Tested on: 857933-349-R-J2-PDC complex spheroid viability
Experiment: Anticancer human tumor 857933-349-R-J2-PDC patient-derived colon adenocarcinoma cell line growth inhibition [POLQ]
Conditions: for IC50: curve of first compound; for viability, T/C: stronger effect = lower value
Method: Multicellular complex tumor spheroid response to Polymerase (POL) inhibitors (novobiocin, ART-558, RP6685) in combination with a variety of drugs and investigational agents in selected tumor cell lines
The POL inhibitors (novobiocin, ART-558, and RP6685) were evaluated both individually and in combination with standard of care and investigational anticancer small molecules within a complex spheroid model of solid tumors. . Complex spheroids include a stromal component modeled by human endothelial cells (HUVEC) and fibroblasts modeled by human mesenchymal stem cells (MSCs). The concentration ranges selected for each drug and investigational agent were based upon clinically achievable concentrations if the clinical Cmax of the agent was known.
Compounds. The drugs and investigational agents: novobiocin (NSC847541), ART-558 (NSC835418), RP-6685 (NSC848927), peposertib (NSC802822), ceralasertib (NSC780249), elimusertib (NSC800525), camonsertib (NSC841442), AZD-1390 (NSC803789), olaparib (NSC753686), talazoparib (NSC767125), rucaparib (NSC756644), sotorasib (NSC818433), MRTX-1133 (NSC836407), SN-38 (NSC673596), topotecan (NSC609699), epotoside (NSC141540), doxorubicin (NSC123127), gemcitabine (NSC613327), 5-fluorouracil (NSC19893), paclitaxel (NSC125973), vemurafenib (NSC761431), MSA-2 (NSC828583), SN-011 (NSC837082), adavosertib (NSC754352), prexasertib (NSC758257), carboplatin (NSC241240) and oxaliplatin (NSC266046), were obtained from the National Cancer Institute (NCI) Developmental Therapeutics Program Chemical Repository (21). The FDA-approved anticancer drug set is available from the Developmental Therapeutics Program at https://dtp.cancer.gov/organization/dscb/obtaining/. […] The stock solutions were prepared in dimethyl sulfoxide (DMSO, Sigma-Aldrich, St. Louis, MO, cat. D2650), except for the platinum compounds which were prepared in saline (Quality Biological, Gaithersburg, MD, cat. 114-055-101), at 800-fold the tested concentration and stored at -70 degrees C prior to their use. All drugs and investigational agents were tested over a range starting from a high concentration at or near the clinical Cmax and decreasing in half-log increments. If the clinical Cmax for an agent had not been determined, the highest concentration tested was 10 microM, except for SN-38, which was tested at a high concentration of 1 microM.
Cell Culture. All cells were maintained in an incubator at 37 degrees C and 5% CO2 with 95% humidity. The PDC lines were cultured according to standard operating procedures established by the NCI PDMR (https://pdmr.cancer.gov). Table 3 of the manuscript, lists the cell lines along with the number of the three cell types plated to form the mct-spheroids and media for tumor cell growth. After thawing, all PDC lines, except 997537-175-T-J1-PDC and 415267-285-R-J2-PDC, were cultured in Matrigel-coated flasks prepared with a working solution of 1X Ham's F-12 nutrient mix, without supplementation (Thermo Fisher Scientific, cat. 11765054), 100 U/mL penicillin-streptomycin (Thermo Fisher Scientific, cat. 15140122), and 2.5% Matrigel (Corning Inc., Corning, NY, cat. 354248) for the first three passages. The two PDC lines 997537-175-T-J1-PDC and 415267-285-R-J2-PDC were cultured on uncoated flasks. The 857933-349-R-J2-PDC line was cultured in 6C/Colon 1B media containing advanced DMEM/F-12 (Thermo Fisher Scientific, cat. 12634028), 10 mM HEPES (Thermo Fisher Scientific, cat. 15630080), 1X GlutaMAX supplement (Thermo Fisher Scientific, cat. 35050061), 0.1 mg/mL primocin (InvivoGen, San Diego, CA, cat. ant-pm-2), 10% defined fetal bovine serum, heat inactivated (HyClone Laboratories Inc., Logan, UT, cat. SH30070.03HI), 50% L-WRN conditioned media (ATCC, cat. CRL-3276), 1.25 mM N-Acetyl-L-cysteine (Sigma-Aldrich, cat. A9165), 10 mM nicotinamide (Sigma-Aldrich, cat. N0636), 1X B-27 supplement (Thermo Fisher Scientific, cat. 17504044), 1X N-2 supplement (Thermo Fisher Scientific, cat. […]

[1] = second compound 0.0316 µM, first compound 0.0316 µM
[2] = second compound 0.0316 µM, first compound 0.1 µM
[3] = second compound 0.0316 µM, first compound 0.316 µM
[4] = second compound 0.0316 µM, first compound 1 µM
[5] = second compound 0.1 µM, first compound 0.0316 µM
[6] = second compound 0.1 µM, first compound 0.1 µM
[7] = second compound 0.1 µM, first compound 0.316 µM
[8] = second compound 0.1 µM, first compound 1 µM
[9] = second compound 0.316 µM, first compound 0.0316 µM
[10] = second compound 0.316 µM, first compound 0.1 µM
[11] = second compound 0.316 µM, first compound 0.316 µM
[12] = second compound 0.316 µM, first compound 1 µM
[13] = second compound 1 µM, first compound 0.0316 µM
[14] = second compound 1 µM, first compound 0.1 µM
[15] = second compound 1 µM, first compound 0.316 µM
[16] = second compound 1 µM, first compound 1 µM
[17] = second compound 3.16 µM, first compound 0.0316 µM
[18] = second compound 3.16 µM, first compound 0.1 µM
[19] = second compound 3.16 µM, first compound 0.316 µM
[20] = second compound 3.16 µM, first compound 1 µM
[21] = second compound 10 µM, first compound 0.0316 µM
[22] = second compound 10 µM, first compound 0.1 µM
[23] = second compound 10 µM, first compound 0.316 µM
[24] = second compound 10 µM, first compound 1 µM
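Further: spheroids exposed to compounds for seven days before readout.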

For `COc1cccc(OCCCN)c1-c1cc(Nc2cnc(C#N)cn2)n[nH]1` + Cc1cccc(N(C)C(=O)C2C(O)CCN2c2nc(C)cc(C(F)(F)F)c2C#N)c1, the IC50 (second compound 0.0316 µM) was 0.763 µM, the IC50 (second compound 0.1 µM) was > 1 µM and the IC50 (second compound 0.316 µM) was > 1 µM. For the same compound, the IC50 (second compound 1 µM) was > 1 µM, the IC50 (second compound 3.16 µM) was 0.511 µM and the IC50 (second compound 10 µM) was > 1 µM. The viability, T/C (second compound 0.0316 µM, first compound 0.00316 µM) was 96.2%, the viability, T/C (second compound 0.0316 µM, first compound 0.01 µM) was 94.5% and the viability, T/C [1] was 97%. For the same compound, the viability, T/C [2] was 86.9%, the viability, T/C [3] was 64.6% and the viability, T/C [4] was 45.5%. The viability, T/C (second compound 0.1 µM, first compound 0.00316 µM) was 105%, the viability, T/C (second compound 0.1 µM, first compound 0.01 µM) was 84.2% and the viability, T/C [5] was 89.2%. It also gave a viability, T/C [6] of 73%, a viability, T/C [7] of 66.3% and a viability, T/C [8] of 50.7%. It also gave a viability, T/C (second compound 0.316 µM, first compound 0.00316 µM) of 102%, a viability, T/C (second compound 0.316 µM, first compound 0.01 µM) of 99.8% and a viability, T/C [9] of 90.9%. It also gave a viability, T/C [10] of 56.8%, a viability, T/C [11] of 61% and a viability, T/C [12] of 55.5%. The viability, T/C (second compound 1 µM, first compound 0.00316 µM) was 110%, the viability, T/C (second compound 1 µM, first compound 0.01 µM) was 96.3% and the viability, T/C [13] was 85.6%. The viability, T/C [14] was 83%, the viability, T/C [15] was 56.4% and the viability, T/C [16] was 52.9%. It also gave a viability, T/C (second compound 3.16 µM, first compound 0.00316 µM) of 98.7%, a viability, T/C (second compound 3.16 µM, first compound 0.01 µM) of 110% and a viability, T/C [17] of 81.8%. For the same compound, the viability, T/C [18] was 69.6%, the viability, T/C [19] was 59.9% and the viability, T/C [20] was 40.7%. It also gave a viability, T/C (second compound 10 µM, first compound 0.00316 µM) of 90.8%, a viability, T/C (second compound 10 µM, first compound 0.01 µM) of 86.5% and a viability, T/C [21] of 77.4%. It also gave a viability, T/C [22] of 67.9%, a viability, T/C [23] of 61.2% and a viability, T/C [24] of 52.5%.

Compound `COc1cc(C2c3cc4c(cc3C(OC3OC5COC(C)OC5C(O)C3O)C3COC(=O)C23)OCO4)cc(OC)c1O` (centres undefined) + Cc1cccc(N(C)C(=O)C2C(O)CCN2c2nc(C)cc(C(F)(F)F)c2C#N)c1 has an IC50 (second compound 0.0316 µM) of 0.725 µM, an IC50 (second compound 0.1 µM) of 0.547 µM and an IC50 (second compound 0.316 µM) of 0.797 µM. The IC50 (second compound 1 µM) was 0.541 µM, the IC50 (second compound 3.16 µM) was 0.24 µM and the IC50 (second compound 10 µM) was 0.323 µM. It also gave a viability, T/C [1] of 86.1%, a viability, T/C [2] of 81.9% and a viability, T/C [3] of 60%. The viability, T/C [4] was 47%, the viability, T/C (second compound 0.0316 µM, first compound 3.16 µM) was 37.1% and the viability, T/C (second compound 0.0316 µM, first compound 10 µM) was 33.9%. It also gave a viability, T/C [5] of 111%, a viability, T/C [6] of 92.6% and a viability, T/C [7] of 51.5%. The viability, T/C [8] was 49.3%, the viability, T/C (second compound 0.1 µM, first compound 3.16 µM) was 42.4% and the viability, T/C (second compound 0.1 µM, first compound 10 µM) was 27.2%. It also gave a viability, T/C [9] of 83.2%, a viability, T/C [10] of 83% and a viability, T/C [11] of 60%. For the same compound, the viability, T/C [12] was 49.9%, the viability, T/C (second compound 0.316 µM, first compound 3.16 µM) was 36% and the viability, T/C (second compound 0.316 µM, first compound 10 µM) was 35.2%. For the same compound, the viability, T/C [13] was 86.5%, the viability, T/C [14] was 68.5% and the viability, T/C [15] was 60.4%. For the same compound, the viability, T/C [16] was 40%, the viability, T/C (second compound 1 µM, first compound 3.16 µM) was 36.5% and the viability, T/C (second compound 1 µM, first compound 10 µM) was 34.7%. The viability, T/C [17] was 72.3%, the viability, T/C [18] was 80.5% and the viability, T/C [19] was 41.6%. It also gave a viability, T/C [20] of 36%, a viability, T/C (second compound 3.16 µM, first compound 3.16 µM) of 38% and a viability, T/C (second compound 3.16 µM, first compound 10 µM) of 33.4%. For the same compound, the viability, T/C [21] was 79.1%, the viability, T/C [22] was 66% and the viability, T/C [23] was 49.1%. It also gave a viability, T/C [24] of 40.9%, a viability, T/C (second compound 10 µM, first compound 3.16 µM) of 37.9% and a viability, T/C (second compound 10 µM, first compound 10 µM) of 33.3%.
